Data on 20 compounds can be found in patent publication US11384060B2, “Amide compounds and use thereof” (ALPHALA CO., LTD., priority 2017, dated 2022).

The target of one assay is T1, glucagon receptor (GCGR) (Homo sapiens, UniProt P47871).
T1 construct: expressed in transfected cells; host or cells: CHO-K1 cells overexpressing GCGR (membrane fractions)
The assay is described as follows: I125-glucagon binding assay (competition, GCGR membrane fractions). The method in brief: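 Membranes from CHO-K1 cells overexpressing GCGR, 7.5 μg/well in 50 mM Tris pH 7.4 with 0.5% BSA, were preincubated 5 min with serially diluted compounds, then given 0.0625 nM final I^125-glucagon for 30 min at 25° C. Bound label was filtered on PEI-coated GF/B and counted; IC50 by non-linear regression.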

Assay [1] concerns the target T2, glucagon receptor (GCGR) overexpressed CHO-K1 cells or human primary hepatocytes (Homo sapiens, UniProt P47871).
T2 construct: expressed in transfected cells; host or cells: GCGR overexpressed CHO-K1 cells or human primary hepatocytes (endogenous receptor)
Description: Glucagon cAMP inhibition assay (Cisbio cAMP Dynamic 2 HTRF). It is filed as cell-based. In a few lines:
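GCGR-overexpressing CHO-K1 cells or human primary hepatocytes in HBSS with 0.1% BSA and 800 nM IBMX, pre-incubated 30 min with serially diluted compounds (1% DMSO final), then stimulated 30 min at room temperature with glucagon at its EC50. cAMP measured by HTRF after 60 min lysis; IC50 by non-linear regression.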

Molecules are shown by their SMILES.

What is called IC50 is the point on the concentration scale where inhibition reaches its midpoint.

T1 sequence (P47871 26-477): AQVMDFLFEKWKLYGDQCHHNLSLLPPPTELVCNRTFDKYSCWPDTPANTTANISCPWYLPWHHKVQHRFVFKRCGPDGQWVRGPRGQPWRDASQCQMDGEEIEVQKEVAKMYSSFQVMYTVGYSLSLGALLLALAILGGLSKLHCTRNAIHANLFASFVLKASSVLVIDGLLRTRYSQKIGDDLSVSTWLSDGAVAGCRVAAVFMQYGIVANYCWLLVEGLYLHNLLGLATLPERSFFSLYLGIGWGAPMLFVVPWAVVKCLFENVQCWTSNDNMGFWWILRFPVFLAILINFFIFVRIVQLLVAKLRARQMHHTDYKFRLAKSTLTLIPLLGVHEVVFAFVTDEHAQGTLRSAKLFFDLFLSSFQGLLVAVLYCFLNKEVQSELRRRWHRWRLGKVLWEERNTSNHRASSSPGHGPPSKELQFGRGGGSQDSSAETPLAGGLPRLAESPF
T2 sequence (P47871 26-477): as above

As to `Cc1nc(OC[C@H](CC(C)C)Nc2ccc(C(=O)NCCC(=O)O)cc2)ccc1-c1ccc(C(F)(F)F)cc1Cl` [Compound 18-7, (S)-3-(4-((1-((5-(2-chloro-4-(trifluoromethyl)phenyl)-6-methylpyridin-2-)oxy)-4-methylpentan-2-yl)amino)benzamido)propanoic Acid], on glucagon receptor (GCGR), the IC50 was 74 nM. Besides, the “IC50 cAMP” value in assay [1] was found to be 80 nM.
The like results for `Cc1nc(OC[C@H](CC(C)C)Nc2ccc(C(=O)NCCC(=O)O)cc2)ccc1-c1ccc(Cl)cc1Cl` [Compound 18-8, (S)-3-(4-((1-((5-(2,4-dichlorophenyl)-6-methylpyridin-2-yl)oxy)-4-methylpentan-2-yl)amino)benzamido)propanoic Acid] were, in that order, 49 nM and 122.5 nM.
The like results for `Cc1nc(OC[C@H](CC(C)C)Nc2ccc(C(=O)NCCC(=O)O)cc2)ccc1-c1cc2ccccc2o1` [Compound 18-9, (S)-3-(4-((1-((5-(benzofuran-2-yl)-6-methylpyridin-2-yl)oxy)-4-methylpentan-2-yl)amino)benzamido)propanoic Acid] were, in that order, 207 nM and 429.9 nM.
For `CCCC[C@H](Cc1ccc(-c2ccc(C(F)(F)F)cc2)cc1)Nc1ccc(C(=O)NCCC(=O)O)cc1` [Compound 19-1, (R)-3-(4-((1-(4′-(trifluoromethyl)-[1,1′-biphenyl]-4-yl)hexan-2-yl)amino)benzamido)propanoic Acid], in that order: 109 nM and 393.8 nM.
For `C[C@@H](Cc1ccc(-c2ccc(Cl)cc2Cl)cc1)Nc1ccc(C(=O)NCCC(=O)O)cc1` [Compound 19-2, (S)-3-(4-((1-(2′,4′-dichloro-[1,1′-biphenyl]-4-yl)propan-2-yl)amino)benzamido)propanoic Acid], at glucagon receptor (GCGR), the IC50 stood at 6320 nM. Further, the “IC50 cAMP” value in assay [1] turned out to be 5186 nM.
Consider `C[C@@H](Cc1ccc(-c2ccc(C(F)(F)F)cc2)cc1)Nc1ccc(C(=O)NCCC(=O)O)cc1` [Compound 19-3, (S)-3-(4-((1-(4′-(trifluoromethyl)-[1,1′-biphenyl]-4-yl)propan-2-yl)amino)benzamido)propanoic Acid], for which the IC50 on glucagon receptor (GCGR) is 2730 nM. Also, in assay [1], the “IC50 cAMP” value turned out to be 2719 nM.
The like results for `C[C@@H](Cc1ccc(-c2ccc(C(C)(C)C)cc2)cc1)Nc1ccc(C(=O)NCCC(=O)O)cc1` [Compound 19-4, (S)-3-(4-((1-(4′-(tert-butyl)-[1,1′-biphenyl]-4-yl)propan-2-yl)amino)benzamido)propanoic Acid] were, in that order, 1630 nM and 3488 nM.
The like results for `CC(C)C[C@H](Cc1ccc(-c2cc3ccccc3o2)cc1)Nc1ccc(C(=O)NCCC(=O)O)cc1` [Compound 19-5, (R)-3-(4-((1-(4-(benzofuran-2-yl)phenyl)-4-methylpentan-2-yl)amino)benzamido)propanoic Acid] were, in that order, 163 nM and 1082 nM.
`CCCCC[C@H](Cc1ccc(-c2cc3ccccc3o2)cc1)Nc1ccc(C(=O)NCCC(=O)O)cc1` [Compound 19-6, (R)-3-(4-((1-(4-(benzofuran-2-yl)phenyl)heptan-2-yl)amino)benzamido)propanoic Acid]: the IC50 on glucagon receptor (GCGR) stood at 158 nM. Further, the “IC50 cAMP” value in assay [1] was 632 nM.
For `CCCC[C@H](Cc1ccc(-c2ccc(C(C)(C)C)cc2)cc1)Nc1ccc(C(=O)NCCC(=O)O)cc1` [Compound 19-7, (R)-3-(4-((1-(4′-(tert-butyl)-[1,1′-biphenyl]-4-yl)hexan-2-yl)amino)benzamido)propanoic Acid], the IC50 at glucagon receptor (GCGR) is 299 nM. Moreover, the “IC50 cAMP” value in assay [1] is given as 731 nM.
The like results for `CC(C)C[C@H](Cc1ccc(-c2ccc(C(C)(C)C)cc2)cc1)Nc1ccc(C(=O)NCCC(=O)O)cc1` [Compound 19-8, (R)-3-(4-((1-(4′-(tert-butyl)-[1,1′-biphenyl]-4-yl)-4-methylpentan-2-yl)amino)benzamido)propanoic Acid] were, in that order, 152 nM and 877 nM.
The like results for `CCCCC[C@@H](Cc1ccc(-c2ccc(OC(F)(F)F)cc2)cc1)Nc1ccc(C(=O)NCCC(=O)O)cc1` [Compound 19-9, (S)-3-(4-((1-(4′-(trifluoromethoxy)-[1,1′-biphenyl]-4-yl)heptan-2-yl)amino)benzamido)propanoic Acid] were, in that order, 151 nM and 76.8 nM.
The like results for `CC(C)CC[C@@H](Cc1ccc(-c2ccc(C(F)(F)F)cc2)cc1)Nc1ccc(C(=O)NCCC(=O)O)cc1` [Compound 19-10, (S)-3-(4-((5-methyl-1-(4′-(trifluoromethyl)-[1,1′-biphenyl]-4-yl)hexan-2-yl)amino)benzamido)propanoic Acid] were, in that order, 195 nM and 373 nM.
Regarding `CCCC[C@@H](Cc1ccc(-c2cc3ccccc3o2)cc1)Nc1ccc(C(=O)NCCC(=O)O)cc1` [Compound 19-11, (S)-3-(4-((1-(4-(benzofuran-2-yl)phenyl)hexan-2-yl)amino)benzamido)propanoic Acid], at glucagon receptor (GCGR), the half-maximal inhibitory concentration (IC50) was found to be 283 nM. Further, the “IC50 cAMP” value in assay [1] stood at 259.9 nM.
For `CCCOC[C@H](Cc1ccc(-c2ccc(C(C)(C)C)cc2)cc1)Nc1ccc(C(=O)NCCC(=O)O)cc1` [Compound 19-12, (S)-3-(4-((1-(4′-(tert-butyl)-[1,1′-biphenyl]-4-yl)-3-propoxypropan-2-yl)amino)benzamido)propanoic Acid], in that order: 763 nM and 1788 nM.
Consider `CCCOC[C@H](Cc1ccc(-c2ccc(C(F)(F)F)cc2)cc1)Nc1ccc(C(=O)NCCC(=O)O)cc1` [Compound 19-13, (S)-3-(4-((1-propoxy-3-(4′-(trifluoromethyl)-[1,1′-biphenyl]-4-yl)propan-2-yl)amino)benzamido)propanoic Acid], for which the IC50 at glucagon receptor (GCGR) is 621 nM. Moreover, in assay [1], the “IC50 cAMP” value amounted to 740 nM.
Regarding `CCCOC[C@H](Cc1ccc(-c2ccc(OC(F)(F)F)cc2)cc1)Nc1ccc(C(=O)NCCC(=O)O)cc1` [Compound 19-14, (S)-3-(4-((1-propoxy-3-(4′-(trifluoromethoxy)-[1,1′-biphenyl]-4-yl)propan-2-yl)amino)benzamido)propanoic Acid], the IC50 at glucagon receptor (GCGR) amounted to 444 nM. Also, the “IC50 cAMP” value in assay [1] was 787 nM.
For `CCCOC[C@H](Cc1ccc(-c2ccc(Cl)cc2Cl)cc1)Nc1ccc(C(=O)NCCC(=O)O)cc1` [Compound 19-15, (S)-3-(4-((1-(2′,4′-dichloro-[1,1′-biphenyl]-4-yl)-3-propoxypropan-2-yl)amino)benzamido)propanoic Acid], in that order: 2670 nM and 2029 nM.
The like results for `CCCOC[C@H](Cc1ccc(-c2c(C)cc(C)cc2C)cc1)Nc1ccc(C(=O)NCCC(=O)O)cc1` [Compound 19-16, (S)-3-(4-((1-propoxy-3-(2′,4′,6′-trimethyl-[1,1′-biphenyl]-4-yl)propan-2-yl)amino)benzamido)propanoic Acid] were, in that order, 3700 nM and 1729 nM.
For `CC(C)COC[C@@H](Cc1ccc(-c2ccc(C(C)(C)C)cc2)cc1)Nc1ccc(C(=O)NCCC(=O)O)cc1` [Compound 19-17, (R)-3-(4-((1-(4′-(tert-butyl)-[1,1′-biphenyl]-4-yl)-3-isobutoxypropan-2-yl)amino)benzamido)propanoic Acid], in that order: 1040 nM and 1225 nM.
